Reference: BigSolDB 2.1

Cn1c(=O)c2c(ncn2CCO)n(C)c1=O
Conditions | solubility (mole fraction)
in ethanol, 313.9 K | 0.001
in ethanol, 321.2 K | 0.0016
in ethanol, 325.7 K | 0.0023
in ethanol, 327.4 K | 0.0029
in ethanol, 332.5 K | 0.004
in ethanol, 336.8 K | 0.0055
in ethanol, 339.1 K | 0.0065
in ethanol, 339.7 K | 0.0068
in ethanol, 342.4 K | 0.0077
in ethanol, 343.8 K | 0.0081
in ethanol, 344.9 K | 0.0086
in n-octanol, 323.2 K | 0.0026
in n-octanol, 333.2 K | 0.0046
in n-octanol, 335.2 K | 0.006
in n-octanol, 338.4 K | 0.0074
in n-octanol, 343.5 K | 0.0095
in n-octanol, 351.8 K | 0.0149
in n-octanol, 355.5 K | 0.02
in n-octanol, 365.2 K | 0.0259
in water, 290.7 K | 0.0027
in water, 300.9 K | 0.0039
in water, 301.6 K | 0.0041
in water, 303.4 K | 0.0042
in water, 304.6 K | 0.0048
in water, 306 K | 0.0052
in water, 312.5 K | 0.0067
in water, 312.8 K | 0.0067
in water, 316.2 K | 0.0086
in water, 317.9 K | 0.0099
in water, 320.5 K | 0.0119
in water, 322.5 K | 0.0133
in water, 324.9 K | 0.0155
in water, 330.8 K | 0.0204
in water, 334.7 K | 0.026
in water, 342 K | 0.0447
in water, 347.3 K | 0.0623
in water, 348.4 K | 0.0808

Cn1cnc2c1c(=O)[nH]c(=O)n2C
solubility (mole fraction)
Conditions | 293.15 K | 298.15 K | 303.15 K | 308.15 K | 313.15 K | 318.15 K
in ethanol | 1.53e-05 | 2.33e-05 | 3.15e-05 | 3.85e-05 | 5.49e-05 | 6.34e-05
in n-octanol | 0.000214 | 0.000433 | – | 0.00061 | – | 0.000824
in water | 0.001 | 0.00101 | 0.00101 | 0.00103 | 0.00104 | 0.00104

Cn1c(=O)c2[nH]cnc2n(C)c1=O
Conditions | solubility (mole fraction)
in ethanol, 309.4 K | 0.0008
in ethanol, 313 K | 0.0013
in ethanol, 318.6 K | 0.002
in ethanol, 321.3 K | 0.0027
in ethanol, 325.2 K | 0.0036
in ethanol, 332.8 K | 0.005
in ethanol, 340.1 K | 0.0083
in ethanol, 345.3 K | 0.0123
in n-octanol, 322.3 K | 0.001
in n-octanol, 327.2 K | 0.0013
in n-octanol, 330.2 K | 0.0017
in n-octanol, 336.7 K | 0.0025
in n-octanol, 337.5 K | 0.0027
in n-octanol, 343.8 K | 0.0045
in n-octanol, 352.1 K | 0.0063
in n-octanol, 355.3 K | 0.0069
in n-octanol, 364.5 K | 0.008
in water, 308.5 K | 0.0004
in water, 310.6 K | 0.0005
in water, 314.5 K | 0.0007
in water, 316.7 K | 0.0009
in water, 319.3 K | 0.001
in water, 323.4 K | 0.0012
in water, 326.2 K | 0.0018
in water, 333.3 K | 0.0026
in water, 337.6 K | 0.0039
in water, 342.6 K | 0.0064
in water, 343.1 K | 0.007
